The NIST ThermoML archive (doi:10.1016/j.jct.2017.06.002)
± gives the expanded uncertainty stated by the source.

Key:
[1] = xn = mol fraction of the nth substance listed; conditions: 100 kPa, Liquid, x1 = 1; for viscosity: Concentric cylinders viscometry; for mass density: Vibrating tube method
[2] = 100 kPa, Liquid; for viscosity: Concentric cylinders viscometry

COCOCOC [2,4,6-trioxaheptane] + COCOCOCOCOC
[1]
Conditions | mass density [kg/m3] | viscosity [mPa·s]
288.15 K | 999.4 ± 2 | 0.9255 ± 0.05
293.15 K | 995.3 ± 2 | 0.9152 ± 0.05
298.15 K | 989.9 ± 2 | 0.9028 ± 0.05
303.15 K | 984.3 ± 2 | 0.8885 ± 0.05
308.15 K | 978.8 ± 2 | 0.8726 ± 0.05
313.15 K | 974.2 ± 2 | 0.8554 ± 0.05

COCOCOCOCOC [2,4,6,8,10-pentaoxaundecane]
[2]
Conditions | viscosity [mPa·s]
288.15 K | 2.207 ± 0.051
293.15 K | 2.015 ± 0.051
298.15 K | 1.848 ± 0.051
303.15 K | 1.703 ± 0.051
308.15 K | 1.576 ± 0.051
313.15 K | 1.464 ± 0.051

mass density [kg/m3], [2]
Conditions | 288.15 K | 293.15 K | 298.15 K | 303.15 K | 308.15 K | 313.15 K
Buoyancy - hydrostatic balance | – | – | 1067.8 ± 2 | – | – | –
Vibrating tube method | 1078.8 ± 2 | 1073.3 ± 2 | 1068.2 ± 2 | 1063.4 ± 2 | 1059.1 ± 2 | 1055.2 ± 2

COCOCOC [2,4,6-trioxaheptane] + COCOCOCOC
[1]
Conditions | mass density [kg/m3] | viscosity [mPa·s]
288.15 K | 999.4 ± 2 | 0.9255 ± 0.05
293.15 K | 995.3 ± 2 | 0.9152 ± 0.05
298.15 K | 989.9 ± 2 | 0.9028 ± 0.05
303.15 K | 984.3 ± 2 | 0.8885 ± 0.05
308.15 K | 978.8 ± 2 | 0.8726 ± 0.05
313.15 K | 974.2 ± 2 | 0.8554 ± 0.05

COCOCOCOC [2,4,6,8-tetraoxanonane] + COCOCOCOCOC
[1]
Conditions | mass density [kg/m3] | viscosity [mPa·s]
288.15 K | 1037.5 ± 2 | 1.259 ± 0.051
293.15 K | 1030.2 ± 2 | 1.166 ± 0.051
298.15 K | 1023.4 ± 2 | 1.084 ± 0.051
303.15 K | 1016.6 ± 2 | 1.028 ± 0.051
308.15 K | 1011 ± 2 | 0.9921 ± 0.051
313.15 K | 1005 ± 2 | 0.9521 ± 0.05

COCOCOCOC [2,4,6,8-tetraoxanonane]
[2]
Conditions | viscosity [mPa·s]
288.15 K | 1.259 ± 0.051
293.15 K | 1.166 ± 0.051
298.15 K | 1.084 ± 0.051
303.15 K | 1.028 ± 0.051
308.15 K | 0.9921 ± 0.051
313.15 K | 0.9521 ± 0.05

mass density [kg/m3], [2]
Conditions | 288.15 K | 293.15 K | 298.15 K | 303.15 K | 308.15 K | 313.15 K
Buoyancy - hydrostatic balance | – | – | 1023.1 ± 2 | – | – | –
Vibrating tube method | 1037.5 ± 2 | 1030.2 ± 2 | 1023.4 ± 2 | 1016.6 ± 2 | 1011 ± 2 | 1005 ± 2

COCOCOC [2,4,6-trioxaheptane]
[2]
Conditions | viscosity [mPa·s]
288.15 K | 0.9255 ± 0.05
293.15 K | 0.9152 ± 0.05
298.15 K | 0.9028 ± 0.05
303.15 K | 0.8885 ± 0.05
308.15 K | 0.8726 ± 0.05
313.15 K | 0.8554 ± 0.05

mass density [kg/m3], [2]
Conditions | 288.15 K | 293.15 K | 298.15 K | 303.15 K | 308.15 K | 313.15 K
Buoyancy - hydrostatic balance | – | – | 989.2 ± 2 | – | – | –
Vibrating tube method | 999.4 ± 2 | 995.3 ± 2 | 989.9 ± 2 | 984.3 ± 2 | 978.8 ± 2 | 974.2 ± 2
